# Experimental data from US20080293771A1, “AZACYCLYLBENZAMIDE DERIVATIVES AS HISTAMINE-3 ANTAGONISTS” (Wyeth, priority 2007, published 2008).
# Structures can show the parent of a compound that is named as a salt.
row,SMILES,melting point
1,"CC(C)N1CCC(N(C)C(=O)c2ccc(-n3cc4ccccc4n3)cc2)CC1 (as salt: hydrochloride) [Example 69, 4-(2H-indazol-2-yl)-N-(1-isopropylpiperidin-4-yl)-N-methylbenzamide]",166 to 168 °C
2,"CN(C(=O)c1ccc(-n2cc3ccccc3n2)cc1)C1CCN(C2CCC2)CC1 (as salt: hydrochloride) [Example 70, N-(1-cyclobutylpiperidin-4-yl)-4-(2H-indazol-2-yl)-N-methylbenzamide]",273 to 275 °C
3,"CN(C(=O)c1ccc(-n2cc3ccccc3n2)cc1)C1CCN(C2CCCC2)CC1 (as salt: hydrochloride) [Example 71, N-(1-cyclopentylpiperidin-4-yl)-4-(2H-indazol-2-yl)-N-methylbenzamide]",283 to 285 °C
4,"CC(C)N1CCC(N(C)C(=O)c2ccc(-n3ncc4ccccc43)cc2)CC1 (as salt: hydrochloride) [Example 72, 4-(1H-indazol-1-yl)-N-(1-isopropylpiperidin-4-yl)-N-methylbenzamide]",151 to 162 °C
5,"CN(C(=O)c1ccc(-n2ncc3ccccc32)cc1)C1CCN(C2CCC2)CC1 (as salt: hydrochloride) [Example 73, N-(1-cyclobutylpiperidin-4-yl)-4-(1H-indazol-1-yl)-N-methylbenzamide]",160 °C (dec.)
6,"CN(C(=O)c1ccc(-n2ncc3ccccc32)cc1)C1CCN(C2CCCC2)CC1 (as salt: hydrochloride) [Example 74, N-(1-cyclopentylpiperidin-4-yl)-4-(1H-indazol-1-yl)-N-methylbenzamide]",240 °C (dec.)
7,"CN(C(=O)c1ccc(Cn2ncc3ccccc32)cc1)[C@@H]1CCNC1 (as salt: hydrochloride) [Example 75, (R)-4-((1H-indazol-1-yl)methyl)-N-methyl-N-(pyrrolidin-3yl)benzamide]",255 to 256 °C
8,"CC(C)N1CC[C@@H](N(C)C(=O)c2ccc(Cn3ncc4ccccc43)cc2)C1 (as salt: hydrochloride) [Example 76, 4-(1H-indazol-1-ylmethyl)-N-[(3R)-1-isopropylpyrrolidin-3-yl]-N-methylbenzamide]",156 to 158 °C
9,"CN(C(=O)c1ccc(Cn2ncc3ccccc32)cc1)[C@@H]1CCN(C2CCC2)C1 (as salt: hydrochloride) [Example 77, N-[(3R)-1-cyclobutylpyrrolidin-3-yl]-4-(1H-indazol-1-ylmethyl)-N-methylbenzamide]",105 to 106 °C
10,"CN(C(=O)c1ccc(Cn2ncc3ccccc32)cc1)[C@@H]1CCN(C2CCCC2)C1 (as salt: hydrochloride) [Example 78, N-[(3R)-1-cyclopentylpyrrolidin-3-yl]-4-(1H-indazol-1-ylmethyl)-N-methylbenzamide]",98 to 99 °C
11,"CC(C)N1CCC(N(C)C(=O)c2ccc(Cn3ncc4ccccc43)cc2)CC1 (as salt: hydrochloride) [Example 79, 4-(1H-indazol-1-ylmethyl)-N-(1-isopropylpiperidin-4-yl)-N-methylbenzamide]",197 to 199 °C
12,"CN(C(=O)c1ccc(Cn2ncc3ccccc32)cc1)C1CCN(C2CCC2)CC1 (as salt: hydrochloride) [Example 80, N-(1-cyclobutylpiperidin-4-yl)-4-(1H-indazol-1-ylmethyl)-N-methylbenzamide]",254 to 256 °C
13,"CN(C(=O)c1ccc(Cn2ncc3ccccc32)cc1)C1CCN(C2CCCC2)CC1 (as salt: hydrochloride) [Example 81, N-(1-cyclopentylpiperidin-4-yl)-4-(1H-indazol-1-ylmethyl)-N-methylbenzamide]",265 to 267 °C
14,"CC(C)N1CCC(N(C)C(=O)c2ccc(-n3cccn3)cc2)CC1 (as salt: hydrochloride) [Example 85, N-(1-isopropylpiperidin-4-yl)-N-methyl-4-(1H-pyrazol-1-yl)benzamide]",285 to 286 °C
15,"CN(C(=O)c1ccc(-n2cccn2)cc1)C1CCN(C2CCC2)CC1 (as salt: hydrochloride) [Example 86, N-(1-cyclobutylpiperidin-4-yl)-N-methyl-4-(1H-pyrazol-1-yl)benzamide]",272 to 273 °C
16,"CN(C(=O)c1ccc(-n2cccn2)cc1)C1CCN(C2CCCC2)CC1 (as salt: hydrochloride) [Example 87, N-(1-cyclopentylpiperidin-4-yl)-N-methyl-4-(1H-pyrazol-1-yl)benzamide]",240 °C (dec.)

# The next lines start with the values.
row,melting point,SMILES
1,213 to 215 °C,"CC(C)N1CCC(N(C)C(=O)c2ccc(Cn3cccn3)cc2)CC1 (as salt: hydrochloride) [Example 91, N-methyl-N-[1-(1-methylethyl)piperidin-4-yl]-4-(1H-pyrazol-1-ylmethyl)benzamide]"
2,235 to 237 °C,"CN(C(=O)c1ccc(Cn2cccn2)cc1)C1CCN(C2CCC2)CC1 (as salt: hydrochloride) [Example 92, N-(1-cyclobutylpiperidin-4-yl)-N-methyl-4-(1H-pyrazol-1-ylmethyl)benzamide]"
3,250 °C (dec.),"CN(C(=O)c1ccc(Cn2cccn2)cc1)C1CCN(C2CCCC2)CC1 (as salt: hydrochloride) [Example 93, N-(1-cyclopentylpiperidin-4-yl)-N-methyl-4-(1H-pyrazol-1-ylmethyl)benzamide]"
4,175 to 177 °C,"Cc1nc2ccccc2n1-c1ccc(C(=O)N(C)[C@@H]2CCN(C(C)C)C2)cc1F (as salt: hydrochloride) [Example 103, 3-fluoro-N-methyl-4-(2-methyl-1H-benzimidazol-1-yl)-N-[(3R)-1-(1-methylethyl)pyrrolidin-3-yl]benzamide]"
5,164 to 166 °C,"Cc1nc2ccccc2n1-c1ccc(C(=O)N(C)[C@@H]2CCN(C3CCC3)C2)cc1F (as salt: hydrochloride) [Example 104, N-[(3R)-1-cyclobutylpyrrolidin-3-yl]-3-fluoro-N-methyl-4-(2-methyl-1H-benzimidazol-1-yl)benzamide]"
6,204 to 205 °C,"Cc1nc2ccccc2n1-c1ccc(C(=O)N(C)[C@@H]2CCN(C(C)C)C2)c(Cl)c1 (as salt: hydrochloride) [Example 105, 2-chloro-N-methyl-4-(2-methyl-1H-benzimidazol-1-yl)-N-[(3R)-1-(1-methylethyl)pyrrolidin-3-yl]benzamide]"
7,207 to 209 °C,"Cc1nc2ccccc2n1-c1ccc(C(=O)N(C)[C@@H]2CCN(C3CCC3)C2)c(Cl)c1 (as salt: hydrochloride) [Example 106, 2-chloro-N-[(3R)-1-cyclobutylpyrrolidin-3-yl]-N-methyl-4-(2-methyl-1H-benzimidazol-1-yl)benzamide]"
8,183 to 185 °C,"Cc1cc(C(=O)N(C)[C@@H]2CCN(C(C)C)C2)ccc1-n1c(C)nc2ccccc21 (as salt: hydrochloride) [Example 107, N,3-dimethyl-4-(2-methyl-1H-benzimidazol-1-yl)-N-[(3R)-1-(1-methylethyl)pyrrolidin-3-yl]benzamide]"
9,164 to 166 °C,"Cc1cc(C(=O)N(C)[C@@H]2CCN(C3CCC3)C2)ccc1-n1c(C)nc2ccccc21 (as salt: hydrochloride) [Example 108, N-[(3R)-1-cyclobutylpyrrolidin-3-yl]-N,3-dimethyl-4-(2-methyl-1H-benzimidazol-1-yl)benzamide]"
